By MIC is commonly meant the smallest concentration in the dilution series that meets the test's criterion for growth inhibition. A high value points to a less susceptible organism. One may read the LD50 as the dose expected to kill half of the subjects tested. As a reminder, the pKa is the negative logarithm of the acid dissociation constant.

Data on four compounds can be found in US4009269A, “Antibiotic compositions and methods from micromonospora purpurea JI-20” (Schering Corporation, priority 1975, dated 1977).

≈ marks a conversion by molar mass, not a printed value. Where a name gives a salt, the structure may show the parent alone.

The subject of data set [1] is Staphylococcus aureus ATCC 6538P. The experiment in a line: Disc-plate assay (bioassay potency). Conditions: for potency (assay against standard Antibiotic JI-20B base): vs standard Antibiotic JI-20B base, assigned potency 1000 mcg/mg. Type of data set: cell-based. Here is the method: Peak antibiotic production is determined by a disc-plate assay which uses Staphylococcus aureus ATCC 6538P as the test organism and which is performed substantially as described by Oden, et al. Antimicrobial Agents and Chemotherapy, 1963, pages 8-13.
The reference standard is Antibiotic JI-20B base having an assigned potency of 1000 mcg/mg. One (1) microgram of the standard in one (1) ml. of 0.1M phosphate buffer at pH 8.0 elicits a zonal response of 16.8± 1.5 mm. The standard Antibiotic JI-20B sulfate assays 730 mcg/mg against the standard base. Antibiotic JI-20A base and the corresponding sulfate assay 723 mcg/mg. and 527 mcg/mg., respectively, when assayed against the standard Antibiotic JI-20B base.

For data set [2], the system named is Escherichia coli 11775. The experiment in a line: In vitro MIC, Mueller-Hinton broth. The class given is cell-based. The settings on record: 24 hours, expressed as free base, tested as sulfate. Here is the method: (§1) In the table set forth below are test results after 24 hours incubation against representative gram positive and gram negative bacteria.
In another data set the test system is Escherichia coli 12740. The data set can be described thus: In vitro MIC, Mueller-Hinton broth. Conditions: 24 hours, expressed as free base, tested as sulfate. The class given is cell-based. The procedure:
as §1

The subject of data set [3] is Klebsiella pneumonia 13883. The data set can be described thus: In vitro MIC, Mueller-Hinton broth. The class given is cell-based. Conditions: Klebsiella pneumoniae, 24 hours, expressed as free base, tested as sulfate. The procedure: as §1
A further data set deals with Klebsiella pneumoniae 18. The data set can be described thus: In vitro MIC, Mueller-Hinton broth. The class given is cell-based. The settings on record: 24 hours, expressed as free base, tested as sulfate. The procedure: as §1
Data set [4] relates to Klebsiella rhinoscleromatis 18804. The experiment in a line: In vitro MIC, Mueller-Hinton broth. Conditions: Klebsiella pneumoniae, 24 hours, expressed as free base, tested as sulfate. The class given is cell-based. The procedure:
as §1

For the next data set, the system named is Proteus mirabilis 8019. The experiment in a line: In vitro MIC, Mueller-Hinton broth. The settings on record: 24 hours, expressed as free base, tested as sulfate. The class given is cell-based. Here is the method: as §1
The subject of data set [5] is Pseudomonas aeruginosa 59. The experiment in a line: In vitro MIC, Mueller-Hinton broth. The class given is cell-based. Conditions: 24 hours, expressed as free base, tested as sulfate. The procedure:
as §1

For data set [6], the system named is Pseudomonas aeruginosa 60. The data set can be described thus: In vitro MIC, Mueller-Hinton broth. Type of data set: cell-based. Conditions: 24 hours, expressed as free base, tested as sulfate. Here is the method:
as §1

For data set [7], the system named is Staphylococcus aureus 2059. The data set can be described thus: In vitro MIC, Mueller-Hinton broth. The class given is cell-based. Conditions: 24 hours, expressed as free base, tested as sulfate. The procedure:
as §1

In a further data set the test system is Staphylococcus aureus 45. The data set can be described thus: In vitro MIC, Mueller-Hinton broth. Conditions: 24 hours, expressed as free base, tested as sulfate. The class given is cell-based. The procedure:
as §1

For another data set, the system named is Staphylococcus aureus 70. The experiment in a line: In vitro MIC, Mueller-Hinton broth. The settings on record: 24 hours, expressed as free base, tested as sulfate. The class given is cell-based. Here is the method: as §1
Data set [8] relates to Escherichia coli 11775. The data set can be described thus: In vivo mouse protection test. Conditions: ip, Escherichia coli 11775 i.p. infection, dosed twice (0 and 4 h), survivors at 48 hours, read-out: PD50. Here is the method:
(§2) To determine the in vivo protective activity of the antibiotics against lethal infections of pathogenic bacterial origin in mice, mice were dosed twice with the individual antibiotic, with a solution or a suspension in an aqueous vehicle containing 0.5 % carboxy-methyl-cellulose (CMC), once immediately before an intraperitoneal injection of the infecting bacteria and once 4 hours after such injection. The number of survivors was determined 48 hours after infection and that data analyzed by standard probit procedures to determine PD50 values with 95% confidence limits. The following chart sets forth the protective activity of the antibiotics against a pathogenic bacterium.

The subject of the next data set is Escherichia coli 626. The experiment in a line: In vivo mouse protection test. Conditions: ip, Escherichia coli 626 i.p. infection, dosed twice (0 and 4 h), survivors at 48 hours, read-out: PD50. The procedure: as §2
Data set [9] deals with Pseudomonas aeruginosa 1516-7. The experiment in a line: In vivo mouse protection test. The settings on record: 15167, ip, Pseudomonas aeruginosa 1516-7 i.p. infection, dosed twice (0 and 4 h), survivors at 48 hours, read-out: PD50. Here is the method:
as §2

Data set [10] has as its system Pseudomonas aeruginosa 413. The data set can be described thus: In vivo mouse protection test. Conditions: ip, Pseudomonas aeruginosa 413 i.p. infection, dosed twice (0 and 4 h), survivors at 48 hours, read-out: PD50. The procedure: as §2
For a further data set, the system named is Salmonella sp. S.C. The experiment in a line: In vivo mouse protection test. Conditions: 48 h, read-out: PD50. Here is the method:
as §2

Data set [11] concerns Staphylococcus aureus Gray 979. The experiment in a line: In vivo mouse protection test. Conditions: GRAY979, ip, Staphylococcus aureus Gray 979 i.p. infection, dosed twice (0 and 4 h), survivors at 48 hours, read-out: PD50. Here is the method:
as §2

A further data set relates to Staphylococcus aureus. The data set can be described thus: In vivo mouse protection test. Conditions: ip, Staphylococcus aureus i.p. infection, dosed twice (0 and 4 h), survivors at 48 hours, read-out: PD50. The procedure: as §2
For data set [12], the system named is Streptococcus pyogenes C2V. The data set can be described thus: In vivo mouse protection test. The settings on record: ip, Streptococcus pyogenes C2V i.p. infection, dosed twice (0 and 4 h), survivors at 48 hours, read-out: PD50. Here is the method:
as §2

The nature of a further data set: Acute toxicity. Conditions: in vivo, iv, I.V.
A further data set can be described thus: pKa. Type of data set: physicochemical.

With `CN[C@@H]1[C@@H](O)[C@@H](O[C@@H]2[C@@H](O)[C@H](O[C@H]3O[C@H](C(C)N)[C@@H](O)[C@H](O)[C@H]3N)[C@@H](N)C[C@H]2N)OC[C@]1(C)O` (stereo partly shown) [Antibiotic JI-20B sulfate], the “potency (assay against standard Antibiotic JI-20B base)” value (“potency” below) in [1] was found to be 730 µg/mg.

Consider `CN[C@@H]1[C@@H](O)[C@@H](O[C@@H]2[C@@H](O)[C@H](O[C@H]3O[C@H](C(C)N)[C@@H](O)[C@H](O)[C@H]3N)[C@@H](N)C[C@H]2N)OC[C@]1(C)O` (stereo partly shown) [Antibiotic JI-20B], for which, in data set [1] (Staphylococcus aureus, ATCC6538P, 1 microgram of standard in 1 ml 0.1M phosphate buffer pH 8.0, read-out: zonal response), the zone of inhibition at 1 µg/mL was 16.8 ± 1.5 mm. For the same compound, the minimal inhibitory concentration (MIC) with Escherichia coli 11775 [2] was determined as 0.8 µg/mL (≈ 1.61 µM); against Escherichia coli 12740, 0.3 µg/mL (≈ 0.605 µM); in [3], 0.08 µg/mL (≈ 0.161 µM); with Klebsiella pneumoniae 18, 17.5 µg/mL (≈ 35.3 µM); in data set [4] it was 0.08 µg/mL (≈ 0.161 µM); against Proteus mirabilis 8019, 0.8 µg/mL (≈ 1.61 µM). For the same compound, the MIC was 7.5 µg/mL (≈ 15.1 µM) in data set [5]; 17.5 µg/mL (≈ 35.3 µM) in data set [6]; 7.5 µg/mL (≈ 15.1 µM) in data set [7]; 0.3 µg/mL (≈ 0.605 µM) against Staphylococcus aureus 45; 3 µg/mL (≈ 6.05 µM) with Staphylococcus aureus 70. Further, the ED50 with Escherichia coli 11775 [8] stood at 8 mg/kg; in the data set with Escherichia coli 626, 15 mg/kg; in data set [9], 50 mg/kg; in [10], 50 mg/kg; in the data set with Salmonella sp. S.C., 4.5 mg/kg; in [11], 2.8 mg/kg. Further, the ED50 with Staphylococcus aureus worked out at 14 mg/kg; in data set [12], 40 mg/kg. This compound also yielded an LD50 in the data set “Acute toxicity” of 115 mg/kg. Further, in the data set “pKa”, the pKa was 8.1.

Consider `CNC1C(O)C(OC2C(N)CC(N)C(OC3OC(CN)C(O)C(O)C3N)C2O)OCC1(C)O` (stereo not shown) [Antibiotic JI-20A sulfate], for which the “potency” value in data set [1] was 527 µg/mg.

As to `CNC1C(O)C(OC2C(N)CC(N)C(OC3OC(CN)C(O)C(O)C3N)C2O)OCC1(C)O` (stereo not shown) [Antibiotic JI-20A], the “potency” value in data set [1] (listed as Antibiotic JI-20A base) is 723 µg/mg. For the same compound, the MIC worked out at 0.3 µg/mL (≈ 0.623 µM) in the data set on Escherichia coli 11775 [2]; 0.3 µg/mL (≈ 0.623 µM) in the data set with Escherichia coli 12740; 7.05 µg/mL (≈ 14.6 µM) in data set [3]; 7.5 µg/mL (≈ 15.6 µM) in the data set on Klebsiella pneumoniae 18; 0.05 µg/mL (≈ 0.104 µM) in data set [4]; 0.8 µg/mL (≈ 1.66 µM) against Proteus mirabilis 8019. In addition, the minimal inhibitory concentration (MIC) in data set [5] turned out to be 3 µg/mL (≈ 6.23 µM); in [6] it was 3 µg/mL (≈ 6.23 µM); in data set [7], 7.5 µg/mL (≈ 15.6 µM); against Staphylococcus aureus 45, 0.3 µg/mL (≈ 0.623 µM); against Staphylococcus aureus 70 it was 3 µg/mL (≈ 6.23 µM). Besides, the ED50 was 4 mg/kg with Escherichia coli 11775 [8]; 15 mg/kg in the data set with Escherichia coli 626; 50 mg/kg in data set [9]; 50 mg/kg in data set [10]; 3 mg/kg with Salmonella sp. S.C.; 3 mg/kg in data set [11]. The ED50 stood at 2.9 mg/kg in the data set with Staphylococcus aureus and 40 mg/kg in [12]. Also, in the data set “Acute toxicity”, the 50% lethal dose (LD50) was found to be 115 mg/kg. The compound further had a pKa in the data set “pKa” of 8.1.
